Source: patent US20180015017A1, “USE OF GLUCOSYLGLYCEROL” (Bitop AG, priority 2008, published 2018)

Tests used:
SOD-2 = assay: Expression of SOD-2 mRNA in fibroblasts (33P-labeled cDNA chip, phosphor imaging); type: cell-based, human; conditions: for Upregulation of SOD-2: relative amount of hybridized targets (radioactivity, phosphor imaging): NHDF fibroblasts, 1-% (w/w) aqueous solution
Procedure: (§1) In these tests appropriate cell cultures were treated with a glucosylglycerol solution and the transcribed mRNA quantified. For this purpose the mRNA was first extracted to produce a ^33P labeled target with the help of a reverse transcriptase. Following this, these targets were applied to a cDNA chip and the radioactivity measured by means of the phosphor imaging method. The cDNA chip contained an array of the cDNAs of various proteins.
(§2) The investigations were carried out with epidermal keratinocytes (NHEK, normal human epidermal keratinocytes) and dermal fibroblasts (NHDF, normal human dermal fibroblasts). In the case of the keratinocytes a 0.5-% (w/w) and in the case of the fibroblasts a 1-% (w/w) aqueous glucosylglycerol solution was used for the treatment.
Fibroblasts: DMEM (Invitrogen 21969035), blended with L-glutamine 2 mM (Invitrogen 25030024), Penicillin 50 Ul/ml/Streptomycin 50 μg/ml (Invitrogen 15070063), fetal calf serum 10% (FCS, Invitrogen 10270098).
(§3) Culturing took place for a period of 24 and 96 hours. At the end of the incubation period the cells were washed with PBS solution (Invitrogen 14190094).
(§4) The extraction of mRNA of each culture was achieved using TriReagent as per a standard protocol. The relevant cDNAs with ^33P-labeled targets was produced by reverse transcription of mRNA using [α^33P]-dATP and oligodT.
(§5) The labeled cDNA targets were hybridized to the specific cDNA probes covalently fixed to minichips. After thorough washing the relative amount of the hybridized targets was determined by means of the phosphor imaging method. This analysis was performed by measuring the radioactivity by means of a “Cyclone” Phosphor Imager (Packard Instruments; 72 hours exposure time) and using the ImageQuant TL-Software (Amersham Biosiences).

SOD-1 = assay: Expression of SOD-1 mRNA in keratinocytes (33P-labeled cDNA chip, phosphor imaging); type: cell-based, human; conditions: for Upregulation of the cytosolic SOD-1: relative amount of hybridized targets (radioactivity, phosphor imaging): NHEK keratinocytes, 0.5-% (w/w) aqueous solution; for increase of the expression of SOD-1: keratinocytes, 0.5-% glucosylglycerol solution
Procedure: as §1, §2
Keratinocytes: Keratinocyte-SFM (Invitrogen 17005-034) blended with epidermal growth factor (EGF) 0.25 ng/ml, pituitary extract (PE) 25 μg/ml (Invitrogen 3700015), Gentamycin […] (Sigma G1397).
as §3, §4, §5

OCC(CO)O[C@H]1O[C@H](CO)[C@@H](O)[C@H](O)[C@H]1O [glucosylglycerol, 2-O-α-D-glucosylglycerol]
Upregulation of SOD-2: relative amount of hybridized targets (radioactivity, phosphor imaging) (SOD-2; 24 h, control 16.5): 419 | Upregulation of SOD-2: relative amount of hybridized targets (radioactivity, phosphor imaging) (SOD-2; 96 h, control 9.1): 313 | higher expression of SOD-2 (SOD-2; fibroblasts, 1-% glucosylglycerol solution, within 24 hours): 25.4 times | increase of expression of SOD-2 (SOD-2; fibroblasts, 1-% glucosylglycerol solution, within 96 hours): 34.4 fold | Upregulation of the cytosolic SOD-1: relative amount of hybridized targets (radioactivity, phosphor imaging) (SOD-1; 24 h, control 18.2): 85 | Upregulation of the cytosolic SOD-1: relative amount of hybridized targets (radioactivity, phosphor imaging) (SOD-1; 96 h, control 9.3): 182 | increase of the expression of SOD-1 (SOD-1; within 24 hours): 4.7 times | increase of the expression of SOD-1 (SOD-1; within 96 hours): 19.6 times
